Source: patent US20090281110A1, “Method of Treatment” (priority 2006, published 2009)

Experiments:
[1] = biological target: T1, recombinant human IL-8 type α and β receptors (Homo sapiens, UniProt P25025); test: Receptor Binding Assay ([125I] IL-8 / GRO-α displacement, CHO membranes); conditions: receptor subtype (IL-8Rα or IL-8Rβ) not given
T1 sequence (P25025 1-360): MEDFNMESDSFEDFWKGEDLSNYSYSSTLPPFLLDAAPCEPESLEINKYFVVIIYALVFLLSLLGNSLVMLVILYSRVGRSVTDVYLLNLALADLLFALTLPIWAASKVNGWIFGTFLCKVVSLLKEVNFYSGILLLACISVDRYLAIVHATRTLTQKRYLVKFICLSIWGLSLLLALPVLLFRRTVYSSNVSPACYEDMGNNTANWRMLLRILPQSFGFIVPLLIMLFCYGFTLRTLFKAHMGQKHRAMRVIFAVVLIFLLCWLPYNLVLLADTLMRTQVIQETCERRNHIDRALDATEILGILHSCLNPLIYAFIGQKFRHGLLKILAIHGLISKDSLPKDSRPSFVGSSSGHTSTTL

[2] = tested on: rat estrogen opposition model; test: Rat Model of Estrogen Opposition: Uterotrophic Model Assay; format: in vivo; conditions: 30 mg/kg/day
Protocol: A rat estrogen opposition model (Lundeen, S. G. et al., (2001) Rat Uterine Complement C3 Expression as a Model for Progesterone Receptor Modulators: Characterization of the New Progestin Trimegestone. J. Steroid Biochem. & Mol. biol. 78, 137-143, incorporated herein to the extent required to perform the present assay) was used to determine the efficacy of Example 2f at 30 mg/kg/day. This was a 48 hour rodent model involving a pre-treatment of compound followed by two days of combined estrogen (0.08 mg/kg) and compound treatment. At termination, uteri were removed from the rats weighed and sectioned for downstream biochemical analysis. Estrogen in this model was pro-inflammatory, inducing edema and infiltration of neutrophils into the endometrium causing a 4 to 5 fold increase in uterine weight. A significant effect of compound treatment on uterine weight was considered approximately a 25% decrease.

| Structure (SMILES) | IC50 [1] | gene expression level of MMP-9 reduced compared to vehicle control and estrogen treated rats ([2]; rat uterus) [%] | gene expression of C3 reduced compared to estrogen only treatment ([2]; rat uterus) [%] | gene expression of cfos reduced compared to estrogen only treatment ([2]; rat uterus) [%] | reduced estrogen-induced uterine wet weight ([2]; rat, 48 hour model, estrogen 0.08 mg/kg) [%+/−5%] |
| --- | --- | --- | --- | --- | --- |
| Cl.O=C(Nc1ccc(Cl)c(S(=O)(=O)N2CCNCC2)c1O)Nc1cccc(F)c1Cl [Example 1, N-[4-chloro-2-hydroxy-3-(piperazine-1-sulfonyl)phenyl]-N′-(2-chloro-3-fluorophenyl)urea hydrochloride] | about 13 nM | – | – | – | – |
| CN1CCN(S(=O)(=O)c2c(Cl)ccc(NC(=O)Nc3cccc(F)c3Cl)c2O)CC1.Cc1ccc(S(=O)(=O)O)cc1 [Example 2f, N-[4-chloro-2-hydroxy-3-(4-methyl-piperazine-1-sulfonyl)-phenyl]-N′-(2-chloro-3-fluorophenyl)-urea p-toluenesulfonate] | – | 50 | 84 | 50 | 66 |
